Data published in patent US7629502B2, “Non-antibiotic selection marker genes” (Academia Sinica, priority 2006, dated 2009).
Entries after “also recorded” stand apart in the source; their conditions may differ.

Experiments:
Assay type in all cases: in vivo, Arabidopsis thaliana
[1] = system: wild-type Arabidopsis; assay: Seedling survival of wild-type Arabidopsis on medium with 5MT or CdCl2; details: for seedling survival rate: WT, surviving/seeds; for survival of wild type / non-transformed plants: medium containing 75 μM 5MT or 300 μM CdCl2; for optimum concentration for the selection of putative transformants: wild-type versus transgenic seedlings
Procedure: (§1) Arabidopsis thaliana (L.) Hyen. ecotype Columbia was grown in controlled environment chambers at 24° C., 70% relative humidity, with 24 h photoperiod (about 120 μmol m^−2s^−1). To transform Arabidopsis plants, we used the floral dip method described previously (Clough and Bent, 1998). To transgenic plants constitutively expressing AtTSB1, were selected on MS medium with 20 ppm hygromycin (Murashige and Skoog 1962). The sensitivity of wild type and transgenic T2 homozygous seeds (T3 generation) to different concentrations of 5MT and CdCl2 were assessed on the basis of the germination percentage of seedlings at the end of 2 weeks. After standardizing the optimal selection concentration of 5MT and CdCl2, the floral dip transformation was again performed to evaluate the selection efficiency between TSB1 and conventional hydromycin selection systems.
(§2) Different concentrations of 5MT (0, 25, 50, 75, 100 and 200 μM) and CdCl2 (0, 50, 100, 200, 300, 400 and 500 μM) were evaluated in order to select the transformants constitutively expressing AtTSB1 gene and in these experiments untransformed wild-types used as negative control. Sixty seeds of each wild-type and transgenic seeds were germinated on medium containing various concentrations of 5MT for 2 weeks, and the number of surviving plants recorded (Table 1). Under all the tested conditions, both wild-type and transgenic seeds could germinate almost equally. […] In the meantime, all seedlings on medium containing less than 50 μM 5MT survived selection even after 2 weeks. Thus, 75 μM 5MT is the optimum concentration for the selection of putative transformants.
(§3) A total of one hundred seeds each of wild-type and transgenic plants were germinated on medium containing different concentrations of CdCl2, for 2 weeks, and the survival was recorded (Table 2). The germination rate in wild-type and transgenic seedlings was almost equal on the medium containing CdCl2 concentrations up to 300 μM. […] All the wild-type and transgenic seedlings survived even after 2 weeks on medium containing CdCl2 less than 100 μM. From these observations, we concluded that 300 μM CdCl2 is the optimal concentration needed for selecting putative transformants.

[2] = system: wild-type Arabidopsis; assay: as above; details: WT, 1 week, surviving/seeds
[3] = system: AtTSB1 transgenic Arabidopsis (TH); assay: Seedling survival of AtTSB1 transgenic (TH) Arabidopsis on medium with 5MT or CdCl2; details: for seedling survival rate: TH, 2 weeks, surviving/seeds; for survival / growth of transgenic plants: medium containing 75 μM 5MT or 300 μM CdCl2
Procedure: as §1, §2, §3

[4] = system: AtTSB1 transgenic Arabidopsis (TH); assay: as above; details: for seedling survival rate: TH, surviving/seeds
[5] = system: wild-type plants; assay: Free Trp content analysis (GC-MS), wild-type plants
Procedure: (§4) Two-week old wild-type and transgenic plants were harvested from germination medium with or without 50 μM 5MT. Endogenous free tryptophan analysis was performed described previously (Edlund et al., 1995) with some modification. Cell extracts were prepared from approximately 50 mg dry weight. Frozen tissues were ground with methanol under continuous shaking for 24 h at 4° C. After centrifuged, the supernatant was filtered by 0.22 μm membrane (Millipore Millexg). The filtered solution was reduced to 1 ml in a Speed Vac concentrator. The final solution was extracted by SEP column (Water Oasis HLB6 cc) and use 1 ml methanol to elute the extracts. Each 100 μl sample was methylated with 160 μl pyridine and 40 μl […]-N-trimethylsilyl-trifuoroacetamide at 70° C. for 1 hr. The GC-MS analysis was performed according to conditions described by Edlund et al (Edlund et al., 1995).
(§5) To elucidate the possible relation between the accumulation of free Trp content and resistance to 5MT and CdCl2, free Trp content was measured in AtTSB1 transgenic plants. […] The level in the transgenic plants TM1, TM3 and TM4 was 10- to 15-fold higher (5,900-8,900 pmole/g dry weight) than in wild-type plants (587 pmole/g dry weight). […] A similar trend was observed when TC3, TC4 and TC5 transgenic plants were measured for Trp content, with or without CdCl2.

[6] = system: AtTSB1 transgenic plants (TM1, TM3, TM4); assay: Free Trp content analysis (GC-MS), TSB transgenic plants; details: for Endogenous contents of tryptophan: two-week old plants
Procedure: as §4, §5

## [Cl][Cd][Cl] [CdCl2]
[1]; CdCl2 50 μM, 1 week
  seedling survival rate: 100/100
[1]; CdCl2 50 μM, 2 weeks
  seedling survival rate: 100/100
[1]; CdCl2 100 μM, 1 week
  seedling survival rate: 100/100
[1]; CdCl2 100 μM, 2 weeks
  seedling survival rate: 100/100
[1]; CdCl2 200 μM, 2 weeks
  seedling survival rate: 30/100
[1]; CdCl2 300 μM, 2 weeks
  seedling survival rate: 0/100
[1]; CdCl2 400 μM, 2 weeks
  seedling survival rate: 0/100
[1]; CdCl2 500 μM, 1 week
  seedling survival rate: 8/100
[1]; CdCl2 500 μM, 2 weeks
  seedling survival rate: 0/100
[1]
  survival of wild type / non-transformed plants: did not survive; also recorded: deteriorated
[1]; 2 weeks
  optimum concentration for the selection of putative transformants: 300 µM
[2]; CdCl2 200 μM
  seedling survival rate: 100/100
[2]; CdCl2 300 μM
  seedling survival rate: 80/100
[2]; CdCl2 400 μM
  seedling survival rate: 12/100
[3]; 300 μM CdCl2, after 2 weeks
  growth of transgenic plants: slightly inhibited
[3]; CdCl2 100 μM
  seedling survival rate: 100/100
[3]; CdCl2 200 μM
  seedling survival rate: 95/100
[3]; CdCl2 300 μM
  seedling survival rate: 98/100
[3]; CdCl2 500 μM
  seedling survival rate: 62/100
[3]
  survival / growth of transgenic plants: grew and survived
[4]; 300 μM CdCl2, after 2 weeks
  transgenic seedlings greener than controls: 98%
[4]; CdCl2 50 μM, 1 week
  seedling survival rate: 100/100
[4]; CdCl2 50 μM, 2 weeks
  seedling survival rate: 100/100
[4]; CdCl2 100 μM, 1 week
  seedling survival rate: 100/100
[4]; CdCl2 200 μM, 1 week
  seedling survival rate: 100/100
[4]; CdCl2 300 μM, 1 week
  seedling survival rate: 100/100
[4]; CdCl2 400 μM, 1 week
  seedling survival rate: 100/100
[4]; CdCl2 400 μM, 2 weeks
  seedling survival rate: 80/100
[4]; CdCl2 500 μM, 1 week
  seedling survival rate: 100/100

## Cc1ccc2[nH]cc(C[C@H](N)C(=O)O)c2c1 [5MT, 5-methyl-tryptophan]
[1]; 75 μM and higher (100 and 200 μM) 5MT, after 2 weeks
  growth of wild-type plants: turned pale green and ceased to grow
[1]; 5MT 25 μM, 1 week
  seedling survival rate: 60/60
[1]; 5MT 25 μM, 2 weeks
  seedling survival rate: 24/60
[1]; 5MT 50 μM, 1 week
  seedling survival rate: 60/60
[1]; 5MT 50 μM, 2 weeks
  seedling survival rate: 10/60
[1]; 5MT 75 μM, 2 weeks
  seedling survival rate: 0/60
[1]; 5MT 100 μM, 2 weeks
  seedling survival rate: 0/60
[1]; 5MT 200 μM, 1 week
  seedling survival rate: 12/60
[1]; 5MT 200 μM, 2 weeks
  seedling survival rate: 0/60
[1]
  survival of wild type / non-transformed plants: did not survive; also recorded: deteriorated
[1]; 2 weeks
  optimum concentration for the selection of putative transformants: 75 µM
[5]; wild type + 5MT 50 μM, two-week old plants
  Endogenous contents of tryptophan: 125 ± 6 pmole/g g · DW
[5]; wild-type plants, 5MT in the medium
  level of free Trp: 125 pmole/g dry weight
[5]; wild-type plants, 5MT in the medium versus without
  reduction of the level of free Trp: fivefold
[6]; TM1 + 5MT 50 μM
  Endogenous contents of tryptophan: 5,200 ± 14 pmole/g g · DW
[6]; TM3 + 5MT 50 μM
  Endogenous contents of tryptophan: 5,100 ± 11 pmole/g g · DW
[6]; TM4 + 5MT 50 μM
  Endogenous contents of tryptophan: 7,200 ± 10 pmole/g g · DW
[6]; transgenic plants TM1, TM3 and TM4, 5MT in the medium
  level of free Trp: 5,100-7,200 pmole/g dry weight
[2]; 5MT 75 μM
  seedling survival rate: 60/60
[2]; 5MT 100 μM
  seedling survival rate: 25/60
[3]; 5MT 25 μM
  seedling survival rate: 60/60
[3]; 5MT 100 μM
  seedling survival rate: 34/60
[3]
  survival / growth of transgenic plants: grew and survived
[3]; transgenic seedlings, 75 μM 5MT
  survival rate: 100%
[4]; 5MT 50 μM, 1 week
  seedling survival rate: 40/40
[4]; 5MT 50 μM, 2 weeks
  seedling survival rate: 60/60
[4]; 5MT 75 μM, 1 week
  seedling survival rate: 60/60
[4]; 5MT 75 μM, 2 weeks
  seedling survival rate: 60/60
[4]; 5MT 100 μM, 1 week
  seedling survival rate: 60/60
[4]; 5MT 200 μM, 1 week
  seedling survival rate: 60/60
[4]; 5MT 200 μM, 2 weeks
  seedling survival rate: 18/60
[4]; all concentrations of 5MT tested (100 and 200 μM)
  resistance of transgenic seedlings: showed resistance
